In patent US20110059910A1, “Novel aromatic fluoroglycoside derivatives, pharmaceuticals comprising said compounds and the use thereof” (SANOFI-AVENTIS, priority 2008, published 2011):

These molecules were tested against T1, human sodium-dependent glucose transporter 1 (SGLT1, SLC5A1) (Homo sapiens, UniProt P13866) (assay: Inhibition of the transport activity of human SGLT1 in vitro (α-MDG uptake in CHO-TRex-hSGLT1 cells)). Details: 50 μM α-MDG, 30 min at room temperature.
T1 construct: Bases 11 to 2005 correspond to the complete coding region of human SGLT1; expressed in transfected cells
T1 sequence (P13866 1-664): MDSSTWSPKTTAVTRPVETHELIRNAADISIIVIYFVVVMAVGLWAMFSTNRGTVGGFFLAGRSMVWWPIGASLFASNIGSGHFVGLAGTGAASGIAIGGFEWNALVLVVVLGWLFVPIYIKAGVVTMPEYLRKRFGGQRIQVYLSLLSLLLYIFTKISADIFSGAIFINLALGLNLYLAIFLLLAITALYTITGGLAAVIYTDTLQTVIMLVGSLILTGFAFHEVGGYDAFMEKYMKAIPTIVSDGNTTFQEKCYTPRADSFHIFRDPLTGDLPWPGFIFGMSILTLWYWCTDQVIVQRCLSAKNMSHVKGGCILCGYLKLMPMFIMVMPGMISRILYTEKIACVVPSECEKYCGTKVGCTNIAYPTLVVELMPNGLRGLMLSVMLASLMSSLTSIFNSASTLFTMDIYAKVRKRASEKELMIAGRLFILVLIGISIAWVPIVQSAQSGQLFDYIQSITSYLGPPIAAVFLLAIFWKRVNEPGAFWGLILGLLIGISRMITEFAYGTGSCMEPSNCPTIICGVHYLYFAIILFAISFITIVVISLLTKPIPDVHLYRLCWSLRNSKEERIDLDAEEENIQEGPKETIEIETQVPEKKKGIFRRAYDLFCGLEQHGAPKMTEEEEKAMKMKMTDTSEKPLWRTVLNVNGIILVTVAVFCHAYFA
Assay type: cell-based
Excerpt: Inhibition of the Transport Activity of the Human Sodium-Dependent Glucose Transporter 1 (SGLT1, SLC5A1) In Vitro:
1. Cloning of an Expression Vector for Human SGLT1
The cDNA for human SGLT1 was introduced into the pcDNA4/TO vector (Invitrogen) by means of standard methods of molecular biology as described in Sambrook et al. (Molecular Cloning, A Laboratory Manual, Second Edition). […] Bases 11 to 2005 correspond to the complete coding region of human SGLT1.
2. Production of a Recombinant Cell Line with Inducible Expression of Human SGLT1
The expression vector for human SGLT1 was introduced into CHO-TRex cells (Invitrogen) by means of FuGene6 lipofection (Roche). To select single cell clones, 600 μg/ml of Zeocin (Invitrogen) was added to the cell culture medium (nutrient mixture F-12 (Ham), Invitrogen) supplemented with 10% fetal calf serum (BD Biosciences), 10 μg/ml Blasticidin S(CN Biosciences), 100 units/ml penicillin, 100 units/ml streptomycin). The functionality of the single cell clones resulting from the selection was tested via their uptake activity for radiolabeled methyl-α-D-glucopyranoside. That cell clone with the highest uptake activity for methyl-α-D-glucopyranoside, referred to hereinafter as CHO-TRex-hSGLT1, was selected for the further experiments and cultured further in the presence of 600 μg/ml Zeocin.
3. Measurement of the Inhibiting Action of Test Substances on the Uptake of methyl-α-D-glucopyranoside (α-MDG)
CHO-TRex-hSGLT1 cells were seeded in cell culture medium in a concentration of 50 000 cells per well in Cytostar-T scintillating 96-well plates (Amersham Biosciences) and cultivated for 24 h. The expression of the recombinant human SGLT1 was induced by adding 1 μg/ml tetracycline for a further 24 h. For α-MDG uptake experiments, the cells were washed with PBS and then starved at 37° C. in starvation medium (PBS supplemented with 10% fetal calf serum) for 1 hour. After a further washing step with transport assay buffer (140 mM sodium chloride, 2 mM potassium chloride, 1 mM magnesium chloride, 1 mM calcium chloride, 10 mM HEPES/Tris, pH 7.5), the cells were incubated at room temperature either in the absence or presence of test substances of different concentration for 15 min. The test substances were diluted correspondingly in transport assay buffer proceeding from a 10 mM stock solution in dimethyl sulfoxide (40 μl/well). The assay was subsequently started by adding 10 μl of a mixture of radiolabeled methyl-α-D-[U-^14C]glucopyranoside (Amersham) and unlabeled methyl-α-D-glucopyranoside (Acros). The final concentration of methyl-α-D-glucopyranoside in the assay was 50 μM. After an incubation time of 30 min at room temperature, the reaction was stopped by adding 50 μl/well of 10 mM methyl-α-D-glucopyranoside in transport assay buffer (4° C.), and the radioactivity taken up into the cells was determined in a MicroBeta Scintillation Microplate Reader (Wallac).
The half-maximum inhibiting action of the test substances (IC50 value) was determined as follows: • 4. Determination of the value for 0% inhibition. This is the measurement in the absence of substance, measured in sodium-containing transport assay buffer. • 5. Determination of the value for 100% inhibition. This is the measurement in the absence of substance, measured in sodium-free transport assay buffer (140 mM choline chloride, 2 mM potassium chloride, 1 mM magnesium chloride, 1 mM calcium chloride, 10 mM HEPES/Tris, pH7.5). • 6. Calculation of the percentage inhibition values of those measurements which were carried out in the presence of different concentrations of test substance. From this, it was then possible to determine that concentration of the test substance which reduces the uptake of the methyl-α-D-glucopyranoside by 50% (IC50 value).

SMILES | IC50
COc1ccc(Cc2cc(C3OC(CO)C(F)C(O)C3O)ccc2OC)cc1 (centres unmarked) [Example 13] | 0.152 µM
CCc1ccc(Cc2cc(C3OC(CO)C(F)C(O)C3O)ccc2Cl)cc1 (centres unmarked) [Example 3] | 0.97 µM
COc1ccc(Cc2cc([C@@H]3O[C@H](CO)[C@@H](F)[C@H](O)[C@H]3O)ccc2OC(F)(F)F)cc1 [Example 40] | 0.232 µM
COc1ccc(Cc2cc(C3OC(CO)C(F)C(O)C3O)ccc2Cl)nc1 (centres unmarked) [Example 36] | 2.7 µM
COc1ccc(Cc2cc([C@@H]3O[C@H](CO)[C@@H](F)[C@H](O)[C@H]3O)ccc2C(F)(F)F)cc1 [Example 48] | 0.24 µM
COc1ccc(Cc2cc(C3OC(CO)C(F)(F)C(O)C3O)ccc2Cl)cc1 (centres unmarked) [Example 22] | 1.4 µM
CCc1ccc(Cc2cc(C3OC(CO)C(F)C(O)C3O)ccc2Cl)s1 (centres unmarked) [Example 6] | 0.475 µM
OCC1OC(c2ccc(Cl)c(Cc3cc4ccccc4s3)c2)C(O)C(O)C1F (centres unmarked) [Example 7] | 1.3 µM
CCOC(=O)OCC1OC(c2ccc(Cl)c(Cc3ccc(OCC)cc3)c2)C(O)C(O)C1(F)F (centres unmarked) [Example 18] | 42 µM
COc1ccc(Cc2cc([C@@H]3O[C@H](CO)C(F)(F)[C@H](O)[C@H]3O)ccc2C(F)(F)F)cc1 [Example 50] | 7.3 µM
CCOC(=O)OC[C@H]1O[C@@H](c2ccc(OC(F)(F)F)c(Cc3ccc(OC)cc3)c2)[C@H](O)[C@@H](O)[C@@H]1F [Example 39] | 22.8 µM
OC[C@H]1O[C@@H](c2ccc(Cl)c(Cc3ccc(O)cc3)c2)[C@H](O)[C@@H](O)C1(F)F [Example 30] | 1.2 µM
CCOc1ccc(Cc2cc(C3OC(CO)C(F)(F)C(O)C3O)ccc2Cl)cc1 (centres unmarked) [Example 2] | 8 µM
COc1ccc(Cc2cc(C3OC(CO)C(F)(F)C(O)C3O)ccc2OC)cc1 (centres unmarked) [Example 15] | 0.611 µM
CCOC(=O)OCC1OC(c2ccc(OC)c(Cc3ccc(OC)cc3)c2)C(O)C(O)C1F (centres unmarked) [Example 12] | 1.5 µM
COc1ccc(Cc2cc(C3OC(CO)C(F)C(O)C3O)ccc2F)cc1 (centres unmarked) [Example 9] | 3.6 µM
OC[C@H]1O[C@@H](c2ccc(Cl)c(Cc3ccc(Cl)cc3)c2)[C@H](O)[C@@H](O)[C@@H]1F [Example 44] | 0.331 µM
CCOC(=O)OCC1OC(c2ccc(Cl)c(Cc3ccc(OC(F)(F)F)cc3)c2)C(O)C(O)C1(F)F (centres unmarked) [Example 26] | > 10 µM
COc1ccc(Cc2cc([C@@H]3O[C@H](CO)C(F)(F)[C@H](O)[C@H]3O)ccc2OC(F)(F)F)cc1 [Example 42] | 3.3 µM
CCc1ccc(Cc2cc(C3OC(CO)C(F)(F)C(O)C3O)ccc2Cl)cc1 (centres unmarked) [Example 1] | 8 µM
CCOC(=O)OCC1OC(c2ccc(Cl)c(Cc3ccc(OC)cn3)c2)C(O)C(O)C1F (centres unmarked) [Example 35] | 4.3 µM

SMILES | IC50
OC[C@H]1O[C@@H](c2ccc(Cl)c(Cc3ccc(Cl)cc3)c2)[C@H](O)[C@@H](O)C1(F)F [Example 46] | 2.6 µM
CCOC(=O)OC[C@H]1O[C@@H](c2ccc(OC(F)(F)F)c(Cc3ccc(OC)cc3)c2)[C@H](O)[C@@H](O)C1(F)F [Example 41] | 11.8 µM
COc1ccc(Cc2cc(C3OC(CO)C(F)(F)C(O)C3O)ccc2F)cc1 (centres unmarked) [Example 11] | 16 µM
COc1ccc(Cc2cc(C3OC(CO)C(F)(F)C(O)C3O)ccc2Cl)nc1 (centres unmarked) [Example 38] | 26.5 µM
CCOC(=O)OCC1OC(c2ccc(Cl)c(Cc3ccc(OCC)cc3)c2)C(O)C(O)C1F (centres unmarked) [Example 16] | 25 µM
Cc1ccc(C2OC(CO)C(F)(F)C(O)C2O)cc1Cc1ccc(O)cc1 (centres unmarked) [Example 33] | 2.6 µM
CCOC(=O)OCC1OC(c2ccc(Cl)c(Cc3ccc(OC)cc3)c2)C(O)C(O)C1(F)F (centres unmarked) [Example 21] | 50 µM
CCOC(=O)OC[C@H]1O[C@@H](c2ccc(C(F)(F)F)c(Cc3ccc(OC)cc3)c2)[C@H](O)[C@@H](O)C1(F)F [Example 49] | > 100 µM
CCOc1ccc(Cc2cc(C3OC(CO)C(F)C(O)C3O)ccc2Cl)cc1 (centres unmarked) [Example 17] | 0.757 µM
CCOC(=O)OCC1OC(c2ccc(F)c(Cc3ccc(OC)cc3)c2)C(O)C(O)C1(F)F (centres unmarked) [Example 10] | 13 µM
CCOC(=O)OCC1OC(c2ccc(F)c(Cc3ccc(OC)cc3)c2)C(O)C(O)C1F (centres unmarked) [Example 8] | 6.6 µM
COc1ccc(Cc2cccc(C3OC(CO)C(F)C(O)C3O)c2)cc1 (centres unmarked) [Example 5] | 0.174 µM
CCOC(=O)OCC1OC(c2ccc(Cl)c(Cc3ccc(OC)cn3)c2)C(O)C(O)C1(F)F (centres unmarked) [Example 37] | 23.4 µM
COc1ccc(Cc2cc(C3OC(CO)C(F)(F)C(O)C3O)ccc2C)cc1 (centres unmarked) [Example 34] | 1.5 µM
CCOC(=O)OCC1OC(c2ccc(Cl)c(Cc3ccc(OC(F)(F)F)cc3)c2)C(O)C(O)C1F (centres unmarked) [Example 24] | 23 µM
OCC1OC(c2ccc(Cl)c(Cc3ccc(OC(F)(F)F)cc3)c2)C(O)C(O)C1(F)F (centres unmarked) [Example 27] | 16 µM
CC(C)Oc1ccc(Cc2cc([C@@H]3O[C@H](CO)C(F)(F)[C@H](O)[C@H]3O)ccc2Cl)cc1 [Example 31] | 12 µM
CCc1ccc(Cc2cc(C3OC(CO)C(F)C(O)C3O)ccc2C)cc1 (centres unmarked) [Example 61] | 0.461 µM
OCC1OC(c2ccc(Cl)c(Cc3ccc(OC(F)(F)F)cc3)c2)C(O)C(O)C1F (centres unmarked) [Example 25] | 3.5 µM
COc1ccc(Cc2cc(C3OC(CO)C(F)C(O)C3O)ccc2Br)cc1 (centres unmarked) [Example 56] | 0.18 µM
